For the assay, the target named is T1, hGIP-R (Homo sapiens, UniProt P48546).
T1 construct: expressed in transfected cells; host or cells: HEK-293 clonal cell lines
T1 sequence (P48546 22-466): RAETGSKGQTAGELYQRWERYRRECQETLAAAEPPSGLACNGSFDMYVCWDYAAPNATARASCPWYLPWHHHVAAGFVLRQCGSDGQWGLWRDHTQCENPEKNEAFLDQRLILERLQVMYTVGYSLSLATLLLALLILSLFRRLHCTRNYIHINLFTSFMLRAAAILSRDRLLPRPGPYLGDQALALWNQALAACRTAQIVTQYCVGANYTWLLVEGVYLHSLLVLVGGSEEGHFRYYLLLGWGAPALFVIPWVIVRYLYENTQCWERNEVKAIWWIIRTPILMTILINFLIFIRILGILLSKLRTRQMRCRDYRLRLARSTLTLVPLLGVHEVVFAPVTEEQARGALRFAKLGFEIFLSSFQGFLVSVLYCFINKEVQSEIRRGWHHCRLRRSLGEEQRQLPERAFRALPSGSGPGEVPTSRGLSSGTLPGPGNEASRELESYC
Nature of the assay: Functional hGIP-R Assay (cAMP formation, HTRF). It is filed as cell-based. Particulars: for Emax: cAMP efficacy, percent of maximal response to GIP(1-42)OH, 37° C., 0.1% bovine casein, arithmetic mean ± SEM; for EC50: cAMP potency, HEK-293 cells expressing hGIP-R, incubated at 37° C. in the presence of 0.1% bovine casein, geometric mean, read-out: Human GIP-R EC50, nM (SEM, n). The procedure:
Functional activity was determined using CAMP formation in HEK-293 clonal cell lines expressing hGIP-R. hGIP-R receptor expressing cells were treated with compound (20 point concentration-response curve in DMSO, 2-fold Labcyte Echo direct dilution, 384 well plate Corning Cat #3570) in DMEM (Gibco Cat #31053) supplemented with 1× GlutaMAX™ (Gibco Cat #35050), 0.1% bovine casein (Sigma C4765-10ML), 250 μM IBMX (3-Isobutyl-1-methylxanthine, Acros Cat #228420010) and 20 mM HEPES (Gibco Cat #15630) in a 20 μL assay volume (final DMSO concentration was 1%). After a 30 min incubation at 37° C., the resulting increase in intracellular cAMP was quantitatively determined using the Revvity CAMP Dynamic 2 HTRF Assay Kit (62AM4PEJ). Briefly, cAMP levels within the cell were detected by adding the cAMP-d2 conjugate in cell lysis buffer (10 μL) followed by the antibody anti-cAMP-Eu^3+-Cryptate, also in cell lysis buffer (10 μL). The resulting competitive assay was incubated for at least 60 min at RT, then detected using a BMG Labtech PHERAstar FSX instrument with excitation at 320 nm and emission at 665 nm and 620 nm. PHERAstar units (emission at 665 nm/620 nm*10,000) are inversely proportional to the amount of cAMP present and were converted to nM cAMP per well using a CAMP standard curve. The amount of cAMP generated (nM) in each well was converted to a percent of the maximal response observed with human GIP (1-42) OH. A relative EC50 value and percent top (Emax) were derived by non-linear regression analysis using the percent maximal response vs. the concentration of compound added, fitted to a four-parameter logistic equation.
A general note: Cyclic AMP is a second messenger, typically raised through Gs and lowered through Gi signalling.

In general, Emax refers to the greatest response seen or fitted, relative to the assay's reference. As usually defined, the EC50 is the concentration at which the effect is half-maximal.

Turning to `COc1cc2cc(-c3ccc([C@H]4C[C@@]45CCN([C@H](Cc4cnn(C(F)F)c4)C(=O)NC(C)(C)Cn4nc(C(F)(F)F)cc4-c4ccc(=O)n(C)c4)C5=O)cc3)cnc2nc1C` (single isomer, unassigned; isomer 1) [Example 105], the Emax was 8.43 ± 1.23% and the EC50 was 49.8 nM.
For `CN1CC(n2cc3cc(-c4ccc([C@H]5C[C@@]56CCN([C@H](Cc5cnn(C(F)F)c5)C(=O)NC(C)(C)Cn5nc(C(F)(F)F)cc5-c5cc(F)c(=O)n(C)c5)C6=O)c(F)c4)cnc3n2)C1` (single isomer, unassigned; isomer 1) [Example 106] the same measures were 77.3 ± 7.69% and 36.3 nM.
In the same order, the values of `Cn1cc(-c2cc(C(F)(F)F)nn2CC(C)(C)NC(=O)[C@@H](Cc2cnn(C(F)F)c2)N2CC[C@@]3(C[C@@H]3c3ccc(-c4cnc5nn(CCO)cc5c4)cc3F)C2=O)cc(F)c1=O` (single isomer, unassigned; isomer 1) [Example 107] are 108 ± 0.709% and 36.2 nM.
For `Cc1cn2cc(-c3ccc(C4CC45CCN([C@H](Cc4cnn(C(F)F)c4)C(=O)NC(C)(C)Cn4nc(C(F)(F)F)cc4-c4cc(F)c(=O)n(C)c4)C5=O)c(C(F)F)c3)cnc2n1` (single isomer, unassigned; isomer 1) [Example 108] the same measures were 81.7 ± 1.63% and 0.47 nM.
`Cc1cn2cc(-c3ccc(C4CC45CCN([C@H](Cc4cnn(C(F)F)c4)C(=O)NC(C)(C)Cn4nc(C(F)(F)F)cc4-c4cnc(C)nc4)C5=O)c(C)n3)cnc2n1` (single isomer, unassigned; isomer 1) [Example 110]: the maximal effect (Emax) is 50.8 ± 1.54% and the EC50 was 4.34 nM.
For `Cc1ncc(-c2cc(C(F)(F)F)nn2CC(C)(C)NC(=O)[C@@H](Cc2cnn(C(F)F)c2)N2CCC3(CC3c3ccc(-c4cnc5nn(C)cc5c4)nc3C)C2=O)cn1` (single isomer, unassigned; isomer 1) [Example 111] the same measures were 28 ± 0.197% and 6.75 nM.
In the case of `Cc1ncc(-c2cc(C(F)(F)F)nn2CC(C)(C)NC(=O)[C@@H](Cc2cnn(C(F)F)c2)N2CCC3(CC3c3ccc(-c4cnc5nn(C)cc5c4)nc3C(F)(F)F)C2=O)cn1` (single isomer, unassigned; isomer 1) [Example 112], the Emax was 62 ± 0.9% and the EC50 worked out at 3.21 nM.
In the case of `Cn1cc2cc(-c3ccc(C4CC45CCN([C@H](Cc4cnn(C(F)F)c4)C(=O)NC(C)(C)Cn4nc(C(F)(F)F)cc4-c4ccc(=O)n(C)c4)C5=O)c(C(F)(F)F)n3)cnc2n1` (single isomer, unassigned; isomer 1) [Example 113], the Emax turned out to be 45.5 ± 2.18% and the EC50 came to 1.22 nM.
`[2H]C([2H])([2H])n1cc(C[C@H](C(=O)NC(C)(C)Cn2nc(C(F)(F)F)cc2-c2cnc(C)nc2)N2CC[C@@]3(C[C@@H]3c3ccc(-c4cnc5nn(C)cc5c4)cc3Cl)C2=O)cn1` (single isomer, unassigned; isomer 1) [Example 114]: the Emax turned out to be 80.3 ± 0.191% and the EC50 was 1.79 nM.
As to `[2H]C([2H])([2H])n1cc(C[C@H](C(=O)NC(C)(C)Cn2nc(C(F)(F)F)cc2-c2cnc(C)nc2)N2CCC3(CC3c3ccc(-c4cnc5nn(C)cc5c4)nc3C(F)(F)F)C2=O)cn1` (single isomer, unassigned; isomer 1) [Example 115], the Emax worked out at 87.3 ± 0.526% and the concentration for a half-maximal effect (EC50) was determined as 4.65 nM.
In the same order, the values of `CC(=O)N1CCN(c2ccc(C3CC34CCN([C@H](Cc3cnn(C(F)F)c3)C(=O)NC(C)(C)Cn3nc(C(F)(F)F)cc3-c3cnc(C)nc3)C4=O)c(C(F)(F)F)n2)CC1` (single isomer, unassigned; isomer 1) [Example 116] are 23.1 ± 0.52% and 127 nM.
Regarding `Cn1cc2cc(-c3ccc([C@H]4C[C@@]45CCN([C@H](Cc4cnn(C(F)F)c4)C(=S)NC(C)(C)Cn4nc(C(F)(F)F)cc4-c4cc(F)c(=O)n(C)c4)C5=O)c(F)c3)cnc2n1` (single isomer, unassigned; isomer 1) [Example 118], the Emax stood at 59.3 ± 1.52% and the EC50 worked out at 4.02 nM.
For `Cn1cc2cc(-c3ccc([C@H]4C[C@@]45CCN([C@H](Cc4cnn(C(F)F)c4)C(=O)NC4(Cn6nc(C(F)(F)F)cc6-c6cc(F)c(=O)n(C)c6)CC4)C5=O)c(F)c3)cnc2n1` (single isomer, unassigned; isomer 1) [Example 119] the same measures were 79.5 ± 5.3% and 144 nM.
With `[2H]C([2H])([2H])N(C(=O)C1CC1(C)c1ccc(-c2cnc3nn(C)cc3c2)cc1F)[C@H](Cc1cnn(C(F)F)c1)C(=O)NC(C)(C)Cn1nc(C(F)(F)F)cc1-c1cc(F)c(=O)n(C)c1` (single isomer, unassigned; isomer 1) [Example 140], the Emax amounted to 84.8 ± 5.99% and the EC50 amounted to 51.7 nM.
On to `Cc1cn2cc(-c3ccc(C4CC45CCN([C@H](Cc4cnn(C(F)F)c4)C(=O)NC(C)(C)Cn4nc(C(F)(F)F)cc4-c4ccc(=O)n(C)c4)C5=O)c(C(F)(F)F)c3)cnc2n1` (single isomer, unassigned; isomer 1) [Example 153], for which the Emax is 77 ± 2.05% and the EC50 was 0.478 nM.
For `Cc1cn2cc(-c3ccc([C@H]4C[C@@]45CCN([C@H](Cc4cnn(C(F)F)c4)C(=O)NC(C)(C)Cc4nc(C(F)(F)F)cn4C4CCN(C)C4=O)C5=O)c(Cl)c3)cnc2n1` (single isomer, unassigned; isomer 1) [Example 177] the same measures were 115 ± 1.59% and 0.845 nM.
For `Cn1cc(C[C@@H](NC(=O)C2CC2c2ccc(-c3cnc4nn(C)cc4c3)s2)C(=O)NC(C)(C)Cn2nc(C(F)(F)F)cc2Br)cn1` (single isomer, unassigned; isomer 2) [Example 7] the same measures were 99.7 ± 0.756% and 246 nM.
For `Cn1cc(C[C@@H](NC(=O)C2CC2c2ccc(-c3cnc4nccn4c3)cc2C(F)(F)F)C(=O)NC(C)(C)Cc2ccc(F)cc2)cn1` (single isomer, unassigned; isomer 2) [Example 29] the same measures were 99.4% and 79.8 nM.
For the compound `Cc1cc(C2CC2C(=O)N[C@H](Cc2cnn(C)c2)C(=O)NC(C)(C)Cc2ccc(F)cc2)ccc1NC(=O)Nc1ccc(F)cc1` (single isomer, unassigned; isomer 2) [Example 50], the Emax was determined as 85.5 ± 2.37% and the EC50 amounted to 82.3 nM.
In the case of `Cn1cc(C[C@@H](NC(=O)C2CC2c2ccc(-c3cnc4nn(C)cc4c3)s2)C(=O)NC(C)(C)Cn2nc(C(F)(F)F)cc2-c2ccc(=O)n(C)c2)cn1` (single isomer, unassigned; isomer 2) [Example 60], the maximum response (Emax) was 89.8 ± 3.63% and the EC50 came to 189 nM.
Take `Cn1cc2cc(-c3ccc(C4CC4C(=O)N[C@H](Cc4cnc5ncccn45)C(=O)NC(C)(C)Cn4cc(C(F)(F)F)cn4)c(F)c3)cnc2n1` (single isomer, unassigned; isomer 2) [Example 71]: the Emax was determined as 88.4 ± 10.3% and the EC50 came to 74.8 nM.
For the compound `CC(C)(Cn1cc(C(F)(F)F)cn1)NC(=O)[C@@H](Cc1cnc2ncccn12)NC(=O)C1CC1c1ccc(-c2cnc3nn(C(F)F)cc3c2)cn1` (single isomer, unassigned; isomer 2) [Example 72], the Emax is 102 ± 4.83% and the EC50 worked out at 300 nM.
For `Cn1cc2cc(-c3ccc(C4CC45CCN([C@H](Cc4cnn(C(F)F)c4)C(=O)NC(C)(C)Cn4nc(C(F)(F)F)cc4-c4cc(F)c(=O)n(C)c4)C5=O)c(C(F)F)c3)cnc2n1` (single isomer, unassigned; isomer 2) [Example 109] the same measures were 73.3 ± 2.59% and 0.701 nM.
With `Cn1cc(C[C@@H](NC(=O)C2CC2(C)c2ccc(-c3cnc4nn(C)cc4c3)cc2)C(=O)NC(C)(C)Cn2cc(C(F)(F)F)cn2)cn1` (single isomer, unassigned; isomer 4) [Example 11], the Emax was determined as 117 ± 5.22% and the EC50 is 55.2 nM.

The record behind these values is patent publication US20260108546A1 (ELI LILLY AND COMPANY, priority 2024, published 2026).
